Data on nine compounds can be found in US8506927B2, “Pegylated fluorobenzamide analogues, their synthesis and use in diagnostic imaging” (Washington University, priority 2011, dated 2013).

One data set concerns the target T1, σ2 receptor (Rattus norvegicus, UniProt Q5U3Y7).
T1 construct: using rat liver membrane homogenates (˜300 μg protein); from tissue; host or cells: rat liver membrane homogenate
T1 sequence (Q5U3Y7 1-176): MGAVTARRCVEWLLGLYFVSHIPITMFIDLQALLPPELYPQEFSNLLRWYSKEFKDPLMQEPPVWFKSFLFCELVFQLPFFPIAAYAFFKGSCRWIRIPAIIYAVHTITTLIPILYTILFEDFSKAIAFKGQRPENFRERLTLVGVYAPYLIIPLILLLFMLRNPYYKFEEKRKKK
As to the kind of experiment: σ2 receptor binding assay, [3H]DTG competition in the presence of (+)-pentazocine. To be noted: for Ki: rat liver membrane homogenates, ~5 nM [3H]DTG with 1 μM (+)-pentazocine, mean ± SEM, read-out: σ2 binding affinity (Ki); for Ratio (σ1/σ2): ratio of Ki σ1 to Ki σ2. The protocol:
(§1) This example illustrates in vitro binding studies with the compounds of the present teachings. In this example, in vitro binding studies can be conducted in order to measure the affinity of the target compounds for σ1 and σ2 receptors.
(§2) In these assays, pegylated sigma ligands of the present teachings can be dissolved in N,N-dimethylformamide (DMF), DMSO or ethanol, and can then be diluted in 50 mM Tris-HCl buffer containing 150 mM NaCl and 100 mM EDTA at pH 7.4 prior to performing σ1 and σ2 receptor binding assays Procedures for isolating the membrane homogenates and performing the σ1 and σ2 receptor binding assays have been described in detail previously (Xu, J., et al., Eur. J. Pharmacol. […] (1-3): 8-17, 2005). Briefly, the σ1 receptor binding assays can be conducted in 96-well plates using guinea pig brain membrane homogenates (˜300 μg protein) and ˜5 nM [^3H](+)-pentazocine (34.9 Ci/mmol, Perkin Elmer, Boston, Mass.). The total incubation time can be 90 min at room temperature. Nonspecific binding can be determined from samples that contain 10 μM of cold haloperidol. After 90 min, the reaction can be terminated by the addition of 150 μL of ice-cold wash buffer (10 mM Tris-HCl, 150 mM NaCl, pH 7.4) using a 96 channel transfer pipette (Fisher Scientific, Pittsburgh, Pa.). The samples can be harvested and filtered rapidly through a 96-well fiber glass filter plate (Millipore, Billerica, Mass.) that has been presoaked with 100 μL of 50 mM Tris-HCl buffer at pH 8.0 for 1 h. Each filter can be washed 3 times with 200 μL of ice-cold wash buffer, and the filter can be counted in a Wallac 1450 MicroBeta liquid scintillation counter (Perkin Elmer, Boston, Mass.).
σ2 receptor binding assays can be conducted using rat liver membrane homogenates (˜300 μg protein) and ˜5 nM [^3H]DTG (58.1 Ci/mmol, Perkin Elmer, Boston, Mass.) in the presence of 1 μM (+)-pentazocine. The incubation time can be […] at room temperature. Nonspecific binding can be determined from samples that contain 10 μM of cold haloperidol. All other procedures can be identical to those described for the σ1 receptor binding assay above.
(§3) Data from the competitive inhibition experiments can be modeled using nonlinear regression analysis to determine the concentration that inhibits 50% of the specific binding of the radioligand (IC50 value). Competitive curves can be best fit to a one-site fit and give pseudo-Hill coefficients of 0.6-1.0. Ki values can be calculated using the method of Cheng and Prusoff (Biochem. Pharmacol. 22: 3099-3108, 1973) and can be presented as the mean±1 SEM. For these calculations, one can use a Kd value of 7.89 nM for [^3H](+)-pentazocine and guinea pig brain; for [^3H]DTG and rat liver, for example 30.73 nM.

Data set [1] deals with EMT-6 mouse mammary adenocarcinoma tumor. Description: Biodistribution / tumor uptake of 18F-labeled compounds in tumor-bearing mice. Particulars: EMT-6 tumor-bearing female Balb/c mice, versus non-pegylated analog (m=1; X1=H; X2=Br), FIG. 2. The format is in vivo. The protocol: This example illustrates in vivo evaluation of compounds of the present teachings. All animal experiments can be conducted in compliance with the Guidelines for the Care and Use of Research Animals established by Washington University's Animal Studies Committee. EMT-6 mouse mammary adenocarcinoma cells (5×10^5 cells in 100 uL of phosphate-buffered saline) can be implanted subcutaneously in the scapular region of female Balb/c mice (˜2-month old and 17-22 g; Charles River Laboratories). The biodistribution studies can be initiated 7-10 days after implantation when the tumor size can be ˜0.2 cm^3 (˜200 mg).
For biodistribution studies, 10-120 μCi of an [^18F]-radiolabeled pegylated compound of the present teachings in 100-150 uL of saline can be injected via the tail vein into EMT-6 tumor-bearing female Balb/c mice. Groups of at least 4 mice can be used for each time point. At 5, 30, 60, and 120 min after injection, the mice can be euthanized, and samples of blood, lung, liver, kidney, muscle, fat, heart, brain, bone and tumor can be removed, weighed and counted in a Beckman Gamma 8000 well counter. After counting, the percentage of the injected dose per gram of tissue (% ID/g) can be calculated. The tumor/organ ratios can be calculated by dividing the % ID/g of the tumor by the % ID/g of each organ.
This example illustrates tumor uptake of ^18F-labeled pegylated compounds 6c, 6d and 6g versus a nonpegylated analog (m=1; X1=H; X2=Br).
In these experiments, various ^18F-labeled pegylated compounds of the present teachings as well as a non-pegylated analog were administered to tumor-bearing mice as described in Example 22. The pegylated compounds tested,
[drawing 27] were 6c (m=2; X1=H; X2=Br), 6d (m=3; X1=H; X2=Br) and 6g (m=2; X1=OCH3; X2=Br). A non-pegylated analog (m=1; X1=H; X2=Br) was also tested.

In the next data set the target is T2, σ1 receptor (Cavia porcellus, UniProt Q60492).
T2 construct: using guinea pig brain membrane homogenates (˜300 μg protein); from tissue; host or cells: guinea pig brain membrane homogenate
Description: σ1 receptor binding assay, [3H](+)-pentazocine competition. Particulars: guinea pig brain membrane homogenates, ~5 nM [3H](+)-pentazocine; mean ± SEM; read-out: σ1 binding affinity (Ki). On the procedure:
as §1, §2, §3

A further data set has as its target σ2 receptors (Homo sapiens, UniProt Q5BJF2). Particulars: stated in words with literature references; cited from earlier work.
The next data set has as its target σ1 receptors (Homo sapiens, UniProt Q99720). Particulars: stated in words with literature references; cited from earlier work.

T2 sequence (Q60492 whole entry): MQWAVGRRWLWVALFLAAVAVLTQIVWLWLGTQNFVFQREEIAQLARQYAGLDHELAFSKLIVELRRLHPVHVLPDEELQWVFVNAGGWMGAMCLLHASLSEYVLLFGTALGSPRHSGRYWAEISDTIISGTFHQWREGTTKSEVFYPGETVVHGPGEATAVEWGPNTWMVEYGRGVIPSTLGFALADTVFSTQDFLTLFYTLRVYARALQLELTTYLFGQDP
Chain of σ1 receptors (Q99720 whole entry): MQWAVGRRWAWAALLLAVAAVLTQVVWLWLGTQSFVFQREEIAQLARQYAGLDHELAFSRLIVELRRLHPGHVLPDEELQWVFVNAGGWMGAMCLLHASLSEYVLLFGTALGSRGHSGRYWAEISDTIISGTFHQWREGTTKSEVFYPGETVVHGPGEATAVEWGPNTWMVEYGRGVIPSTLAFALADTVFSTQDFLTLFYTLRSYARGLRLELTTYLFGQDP
Chain of σ2 receptors (Q5BJF2 whole entry): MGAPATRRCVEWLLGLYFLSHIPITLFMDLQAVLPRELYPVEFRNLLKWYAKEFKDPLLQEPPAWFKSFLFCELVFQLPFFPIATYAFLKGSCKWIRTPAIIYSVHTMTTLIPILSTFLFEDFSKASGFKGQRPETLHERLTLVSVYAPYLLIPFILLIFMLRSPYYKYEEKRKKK

The term Ki denotes the dissociation constant of the complex between target and ligand, obtained from inhibition or displacement. `COc1cc2c(cc1OC)CN(CCCCNC(=O)c1cc(Br)ccc1OCCOCCF)CC2` [6c, 5-Bromo-N-(4-(6,7-dimethoxy-3,4-dihydroisoquinolin-2(1H)-yl)butyl)-2-(2-(2-fluoroethoxy)ethoxy)benzamide]: at σ2 receptor, the inhibition constant (Ki) was 1.38 ± 0.2 nM and the “Ratio (σ1/σ2)” value came to 755. Also, in data set [1], the rate of washout result is reported as “slower rate of washout” and the tumor uptake entry is recorded as “higher tumor uptake compared to the non-pegylated analog”. The Ki at σ1 receptor stood at 1040 nM.
Regarding `COc1cc2c(cc1OC)CN(CCCCNC(=O)c1cc(C)ccc1OCCOCCF)CC2` [6a, N-(4-(6,7-dimethoxy-3,4-dihydroisoquinolin-2(1H)-yl)butyl)-2-(2-(2-fluoroethoxy)ethoxy)-5-methylbenzamide], the Ki turned out to be 6.75 ± 0.9 nM on σ2 receptor and 277 ± 38 nM on σ1 receptor. For the same compound, the “Ratio (σ1/σ2)” value on σ2 receptor was determined as 41.
With `O=C(Cc1cccc(Br)c1)NC1CCN(Cc2ccc(F)cc2)CC1` [Yun-143, N-(4-fluorobenzyl)piperidinyl-4-(3-bromophenyl)acetamide], the “affinity for σ2 receptors” value at σ2 receptors is listed as “high affinity”. Moreover, the “affinity for σ1 receptors” value on σ1 receptors is given as “high affinity”.
For the compound `COc1cc2c(cc1OC)CN(CCCCNC(=O)c1cc(Br)cc(OC)c1OCCOCCOCCF)CC2` [6h], at σ2 receptor, the inhibition constant (Ki) was 33 nM and the “Ratio (σ1/σ2)” value came out at 276. Moreover, the Ki on σ1 receptor came to 9100 nM.
As for `COc1cc2c(cc1OC)CN(CCCCNC(=O)c1cc(Br)cc(OC)c1OCCOCCF)CC2` [6g, 5-bromo-N-(4-(6,7-dimethoxy-3,4-dihydroisoquinolin-2(1H)-yl)butyl)-2-(2-(2-fluoroethoxy)ethoxy)-3-methoxybenzamide], on σ2 receptor, the Ki was 4.67 ± 0.6 nM and the “Ratio (σ1/σ2)” value was 143. Also, in data set [1], the rate of washout result is listed as “slower rate of washout” and the tumor uptake entry is “higher tumor uptake compared to the non-pegylated analog”. Also, the inhibition constant (Ki) on σ1 receptor turned out to be 669 ± 101 nM.
In the case of `COc1cc2c(cc1OC)CN(CCCCNC(=O)c1cc(I)ccc1OCCOCCOCCF)CC2` [6f, N-(4-(6,7-dimethoxy-3,4-dihydroisoquinolin-2(1H)-yl)butyl)-2-(2-(2-(2-fluoroethoxy)ethoxy)ethoxy)-5-iodobenzamide], at σ2 receptor, the inhibition constant Ki was determined as 7.47 ± 1.2 nM and the “Ratio (σ1/σ2)” value was 171. The Ki at σ1 receptor was found to be 1280 nM.
`COc1cc2c(cc1OC)CN(CCCCNC(=O)c1cc(Br)ccc1OCCOCCOCCF)CC2` [6d, 5-Bromo-N-(4-(6,7-dimethoxy-3,4-dihydroisoquinolin-2(1H)-yl)butyl)-2-(2-(2-(2-fluoroethoxy)ethoxy)ethoxy)benzamide]: at σ2 receptor, the Ki was 9.8 ± 0.4 nM and the “Ratio (σ1/σ2)” value is on record as 103. In data set [1], the rate of washout result is given as “slower rate of washout” and the tumor uptake result is recorded as “higher tumor uptake compared to the non-pegylated analog”. In addition, at σ1 receptor, the Ki is 1010 nM.
Take `COc1cc2c(cc1OC)CN(CCCCNC(=O)c1cc(I)ccc1OCCOCCF)CC2` [6e]: at σ2 receptor, the Ki worked out at 6.29 ± 0.6 nM and the “Ratio (σ1/σ2)” value worked out at 72. The inhibition constant Ki on σ1 receptor is 451 ± 56 nM.
For `COc1cc2c(cc1OC)CN(CCCCNC(=O)c1cc(C)ccc1OCCOCCOCCF)CC2` [6b, N-(4-(6,7-dimethoxy-3,4-dihydroisoquinolin-2(1H)-yl)butyl)-2-(2-(2-(2-fluoroethoxy)ethoxy)ethoxy)-5-methylbenzamide] the same measures were 10.1 ± 0.4 nM, 190 and 1920 nM.
